Laboratory results from patent US20250120967A1, “TYROSINE KINASES INHIBITORS AND USES THEREOF” (GREAT NOVEL THERAPEUTICS BIOTECH & MEDICALS CORPORATION, priority 2023, published 2025).

What was measured:
Experiment in all cases: Tyrosine kinase inhibition assay
Format in all cases: biochemical
Details in all cases: single concentration 1.0 μM, read-out: percent inhibition
[1] = target: BRAF (Homo sapiens, UniProt P15056)
Procedure, shortened: (§1)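 Single-point screen, 1.0 μM compound, 1% DMSO final; ATP at apparent Km. Buffer: 50 mM HEPES pH 7.5, 0.01% BRIJ-35, 10 mM MgCl2, 1 mM EGTA. Z′-LYTE readout, % inhibition; hit = >80%.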

[2] = target: T1, MUSK (Homo sapiens, UniProt O15146)
T1 sequence (O15146 24-869): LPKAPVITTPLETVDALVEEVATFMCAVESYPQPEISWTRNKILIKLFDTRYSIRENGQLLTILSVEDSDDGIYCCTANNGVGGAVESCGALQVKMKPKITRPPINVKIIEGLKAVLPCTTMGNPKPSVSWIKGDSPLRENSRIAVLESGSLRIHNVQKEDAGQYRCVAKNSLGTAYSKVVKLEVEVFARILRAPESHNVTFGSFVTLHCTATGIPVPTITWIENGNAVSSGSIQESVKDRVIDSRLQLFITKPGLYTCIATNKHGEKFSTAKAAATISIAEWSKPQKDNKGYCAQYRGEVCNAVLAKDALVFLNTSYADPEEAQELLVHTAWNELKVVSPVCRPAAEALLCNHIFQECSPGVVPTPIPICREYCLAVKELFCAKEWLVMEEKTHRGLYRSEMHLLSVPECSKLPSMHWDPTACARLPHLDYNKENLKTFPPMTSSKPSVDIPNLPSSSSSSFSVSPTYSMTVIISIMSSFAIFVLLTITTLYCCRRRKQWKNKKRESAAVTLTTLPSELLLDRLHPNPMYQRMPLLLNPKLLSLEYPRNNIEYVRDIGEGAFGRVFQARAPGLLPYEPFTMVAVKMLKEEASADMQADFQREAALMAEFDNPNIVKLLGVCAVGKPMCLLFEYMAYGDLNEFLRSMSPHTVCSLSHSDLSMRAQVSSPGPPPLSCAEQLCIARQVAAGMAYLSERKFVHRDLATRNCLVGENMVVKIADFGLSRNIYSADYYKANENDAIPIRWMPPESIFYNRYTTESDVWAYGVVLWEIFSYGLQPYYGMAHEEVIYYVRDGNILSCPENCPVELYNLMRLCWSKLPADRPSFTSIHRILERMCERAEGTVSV
Procedure, shortened: as §1

[3] = target: INSR (Homo sapiens, UniProt P06213)
Procedure, shortened: as §1

[4] = target: FGFR1 (Homo sapiens, UniProt P11362)
Procedure, shortened: as §1

[5] = target: CSK (Homo sapiens, UniProt P41240)
Procedure, shortened: as §1

[6] = target: TNK2 (ACK) (Homo sapiens, UniProt Q07912)
Procedure, shortened: as §1

[7] = target: FGFR2 (Homo sapiens, UniProt P21802)
Procedure, shortened: as §1

[8] = target: T2, JAK3 (Homo sapiens, UniProt P52333)
T2 sequence (P52333 1-1124): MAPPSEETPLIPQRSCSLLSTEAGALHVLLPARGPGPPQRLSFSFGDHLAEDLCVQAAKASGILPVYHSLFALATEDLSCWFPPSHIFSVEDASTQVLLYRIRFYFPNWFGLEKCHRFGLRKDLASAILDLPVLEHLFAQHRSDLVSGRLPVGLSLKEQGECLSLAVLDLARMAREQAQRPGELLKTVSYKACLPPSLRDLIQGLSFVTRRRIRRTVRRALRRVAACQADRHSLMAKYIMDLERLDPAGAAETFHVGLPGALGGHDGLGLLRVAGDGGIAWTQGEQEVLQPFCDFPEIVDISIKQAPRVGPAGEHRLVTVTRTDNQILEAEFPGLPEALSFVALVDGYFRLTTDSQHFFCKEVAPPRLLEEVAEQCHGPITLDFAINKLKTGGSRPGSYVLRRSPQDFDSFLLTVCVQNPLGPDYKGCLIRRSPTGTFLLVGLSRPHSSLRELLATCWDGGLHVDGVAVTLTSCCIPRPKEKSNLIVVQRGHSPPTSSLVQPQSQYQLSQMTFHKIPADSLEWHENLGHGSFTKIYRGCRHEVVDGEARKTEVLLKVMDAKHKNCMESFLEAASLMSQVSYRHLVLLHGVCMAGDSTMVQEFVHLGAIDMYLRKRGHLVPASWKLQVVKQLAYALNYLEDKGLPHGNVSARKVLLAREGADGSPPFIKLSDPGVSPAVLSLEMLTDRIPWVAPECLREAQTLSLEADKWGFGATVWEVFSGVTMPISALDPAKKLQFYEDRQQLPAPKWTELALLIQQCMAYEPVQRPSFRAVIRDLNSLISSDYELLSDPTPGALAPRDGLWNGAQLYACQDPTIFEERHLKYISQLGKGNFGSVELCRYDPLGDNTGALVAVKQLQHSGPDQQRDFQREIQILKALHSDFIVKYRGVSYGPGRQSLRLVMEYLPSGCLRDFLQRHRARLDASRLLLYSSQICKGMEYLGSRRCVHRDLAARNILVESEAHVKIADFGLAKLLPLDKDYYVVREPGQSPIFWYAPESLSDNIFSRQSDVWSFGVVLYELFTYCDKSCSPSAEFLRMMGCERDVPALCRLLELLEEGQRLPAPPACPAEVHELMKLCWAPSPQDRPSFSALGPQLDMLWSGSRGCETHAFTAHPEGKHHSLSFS
Procedure, shortened: as §1

[9] = target: MAPK8 (JNK1) (Homo sapiens, UniProt P45983)
Procedure, shortened: as §1

[10] = target: AKT3 (PKB gamma) (Homo sapiens, UniProt Q9Y243)
Procedure, shortened: as §1

[11] = target: SYK (Homo sapiens, UniProt P43405)
Procedure, shortened: as §1

Sequence of INSR (P06213 28-1382): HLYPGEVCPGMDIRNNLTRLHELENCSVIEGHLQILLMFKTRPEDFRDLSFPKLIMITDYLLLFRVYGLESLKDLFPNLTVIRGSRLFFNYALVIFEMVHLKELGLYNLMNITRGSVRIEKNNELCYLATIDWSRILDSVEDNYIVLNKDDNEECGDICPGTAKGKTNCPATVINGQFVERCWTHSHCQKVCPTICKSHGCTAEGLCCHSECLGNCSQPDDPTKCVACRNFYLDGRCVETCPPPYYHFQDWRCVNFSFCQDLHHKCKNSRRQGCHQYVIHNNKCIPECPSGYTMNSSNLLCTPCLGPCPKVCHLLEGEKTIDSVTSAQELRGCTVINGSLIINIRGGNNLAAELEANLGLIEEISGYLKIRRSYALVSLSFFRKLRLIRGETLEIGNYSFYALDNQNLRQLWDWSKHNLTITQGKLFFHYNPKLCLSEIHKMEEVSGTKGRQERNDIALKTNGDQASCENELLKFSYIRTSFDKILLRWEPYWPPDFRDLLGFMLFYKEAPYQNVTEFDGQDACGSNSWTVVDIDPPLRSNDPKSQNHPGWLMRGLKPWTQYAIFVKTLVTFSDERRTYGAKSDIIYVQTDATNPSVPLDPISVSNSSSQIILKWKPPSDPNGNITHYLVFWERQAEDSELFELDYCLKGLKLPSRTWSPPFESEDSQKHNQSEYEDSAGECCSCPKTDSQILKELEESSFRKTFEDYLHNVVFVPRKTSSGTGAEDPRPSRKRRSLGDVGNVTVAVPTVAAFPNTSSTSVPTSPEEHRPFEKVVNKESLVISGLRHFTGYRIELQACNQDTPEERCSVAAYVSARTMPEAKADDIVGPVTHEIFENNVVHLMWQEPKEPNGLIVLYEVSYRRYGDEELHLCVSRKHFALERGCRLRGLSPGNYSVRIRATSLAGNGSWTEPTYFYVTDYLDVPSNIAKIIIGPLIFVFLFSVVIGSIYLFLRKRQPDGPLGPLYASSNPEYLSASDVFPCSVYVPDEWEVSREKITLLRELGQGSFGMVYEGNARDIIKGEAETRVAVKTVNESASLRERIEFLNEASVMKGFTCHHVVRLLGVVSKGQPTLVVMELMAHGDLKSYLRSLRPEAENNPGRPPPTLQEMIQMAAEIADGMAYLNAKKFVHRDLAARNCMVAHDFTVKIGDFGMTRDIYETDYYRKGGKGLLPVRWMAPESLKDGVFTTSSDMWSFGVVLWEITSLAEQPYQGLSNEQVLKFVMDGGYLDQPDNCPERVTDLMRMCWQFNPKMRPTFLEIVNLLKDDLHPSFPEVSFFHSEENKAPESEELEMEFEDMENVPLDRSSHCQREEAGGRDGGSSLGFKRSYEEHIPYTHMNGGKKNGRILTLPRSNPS
Sequence of FGFR2 (P21802 22-821): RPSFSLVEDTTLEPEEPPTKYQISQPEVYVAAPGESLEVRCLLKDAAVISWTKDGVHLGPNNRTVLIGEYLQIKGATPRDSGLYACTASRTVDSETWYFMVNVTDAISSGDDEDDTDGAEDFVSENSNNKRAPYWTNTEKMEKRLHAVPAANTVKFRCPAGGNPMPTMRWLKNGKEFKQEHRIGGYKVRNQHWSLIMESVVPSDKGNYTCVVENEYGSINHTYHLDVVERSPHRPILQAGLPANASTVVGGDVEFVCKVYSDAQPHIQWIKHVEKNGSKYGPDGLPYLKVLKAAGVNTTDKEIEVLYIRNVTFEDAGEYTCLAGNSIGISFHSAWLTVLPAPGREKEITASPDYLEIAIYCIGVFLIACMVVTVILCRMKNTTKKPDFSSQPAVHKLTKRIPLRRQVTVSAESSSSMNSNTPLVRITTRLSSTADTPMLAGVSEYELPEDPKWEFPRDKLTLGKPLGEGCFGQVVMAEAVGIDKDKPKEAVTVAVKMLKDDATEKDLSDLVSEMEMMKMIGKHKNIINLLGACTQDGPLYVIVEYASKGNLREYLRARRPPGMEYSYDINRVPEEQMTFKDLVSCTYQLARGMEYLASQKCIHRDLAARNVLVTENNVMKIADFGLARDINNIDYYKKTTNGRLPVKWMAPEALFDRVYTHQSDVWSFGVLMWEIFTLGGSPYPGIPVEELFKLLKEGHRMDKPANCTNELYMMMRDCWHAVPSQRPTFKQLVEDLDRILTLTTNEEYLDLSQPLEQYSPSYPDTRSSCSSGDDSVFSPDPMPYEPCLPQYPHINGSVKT
Sequence of AKT3 (PKB gamma) (Q9Y243 whole entry): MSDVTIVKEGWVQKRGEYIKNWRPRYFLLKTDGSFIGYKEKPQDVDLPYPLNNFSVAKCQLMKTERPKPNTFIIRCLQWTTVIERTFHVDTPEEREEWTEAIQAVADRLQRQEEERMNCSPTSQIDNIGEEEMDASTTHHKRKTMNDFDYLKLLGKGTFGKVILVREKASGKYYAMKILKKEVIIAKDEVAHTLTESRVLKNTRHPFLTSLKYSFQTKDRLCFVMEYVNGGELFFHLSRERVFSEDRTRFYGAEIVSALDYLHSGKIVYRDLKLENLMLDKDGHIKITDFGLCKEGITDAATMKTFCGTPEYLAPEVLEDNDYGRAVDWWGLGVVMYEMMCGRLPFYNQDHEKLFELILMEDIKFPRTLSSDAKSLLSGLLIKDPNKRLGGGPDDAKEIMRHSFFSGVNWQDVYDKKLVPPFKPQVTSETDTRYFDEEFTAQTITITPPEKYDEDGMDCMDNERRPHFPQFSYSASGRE
Sequence of MAPK8 (JNK1) (P45983 whole entry): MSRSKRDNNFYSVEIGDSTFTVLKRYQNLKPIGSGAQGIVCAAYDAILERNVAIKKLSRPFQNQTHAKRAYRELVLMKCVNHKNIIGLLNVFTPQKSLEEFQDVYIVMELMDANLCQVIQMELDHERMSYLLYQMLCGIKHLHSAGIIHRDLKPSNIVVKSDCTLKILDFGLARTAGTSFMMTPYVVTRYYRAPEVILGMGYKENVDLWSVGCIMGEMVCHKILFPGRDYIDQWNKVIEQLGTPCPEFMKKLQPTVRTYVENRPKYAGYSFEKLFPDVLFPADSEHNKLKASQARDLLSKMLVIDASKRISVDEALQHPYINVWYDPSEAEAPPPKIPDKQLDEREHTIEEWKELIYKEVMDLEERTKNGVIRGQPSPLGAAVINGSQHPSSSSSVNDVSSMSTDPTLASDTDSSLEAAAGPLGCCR
Sequence of BRAF (P15056 whole entry): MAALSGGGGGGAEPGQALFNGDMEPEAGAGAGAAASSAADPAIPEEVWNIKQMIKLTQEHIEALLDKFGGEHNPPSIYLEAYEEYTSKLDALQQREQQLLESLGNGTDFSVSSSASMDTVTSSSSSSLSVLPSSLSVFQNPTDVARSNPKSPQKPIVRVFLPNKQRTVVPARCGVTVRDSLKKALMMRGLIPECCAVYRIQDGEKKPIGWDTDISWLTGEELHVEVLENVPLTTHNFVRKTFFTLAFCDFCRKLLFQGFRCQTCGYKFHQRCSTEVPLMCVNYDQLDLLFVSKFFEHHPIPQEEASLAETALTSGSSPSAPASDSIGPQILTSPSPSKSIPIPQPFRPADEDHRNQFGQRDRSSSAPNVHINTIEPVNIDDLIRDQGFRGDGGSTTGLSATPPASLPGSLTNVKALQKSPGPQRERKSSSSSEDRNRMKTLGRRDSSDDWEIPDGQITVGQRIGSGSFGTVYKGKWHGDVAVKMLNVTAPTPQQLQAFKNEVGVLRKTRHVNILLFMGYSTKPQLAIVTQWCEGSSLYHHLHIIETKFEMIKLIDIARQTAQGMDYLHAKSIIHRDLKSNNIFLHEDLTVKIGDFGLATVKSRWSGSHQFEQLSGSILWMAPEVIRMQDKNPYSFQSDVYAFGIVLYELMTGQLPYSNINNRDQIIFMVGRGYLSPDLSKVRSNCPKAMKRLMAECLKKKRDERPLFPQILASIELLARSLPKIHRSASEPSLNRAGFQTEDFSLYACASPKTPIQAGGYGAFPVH
Sequence of TNK2 (ACK) (Q07912 whole entry): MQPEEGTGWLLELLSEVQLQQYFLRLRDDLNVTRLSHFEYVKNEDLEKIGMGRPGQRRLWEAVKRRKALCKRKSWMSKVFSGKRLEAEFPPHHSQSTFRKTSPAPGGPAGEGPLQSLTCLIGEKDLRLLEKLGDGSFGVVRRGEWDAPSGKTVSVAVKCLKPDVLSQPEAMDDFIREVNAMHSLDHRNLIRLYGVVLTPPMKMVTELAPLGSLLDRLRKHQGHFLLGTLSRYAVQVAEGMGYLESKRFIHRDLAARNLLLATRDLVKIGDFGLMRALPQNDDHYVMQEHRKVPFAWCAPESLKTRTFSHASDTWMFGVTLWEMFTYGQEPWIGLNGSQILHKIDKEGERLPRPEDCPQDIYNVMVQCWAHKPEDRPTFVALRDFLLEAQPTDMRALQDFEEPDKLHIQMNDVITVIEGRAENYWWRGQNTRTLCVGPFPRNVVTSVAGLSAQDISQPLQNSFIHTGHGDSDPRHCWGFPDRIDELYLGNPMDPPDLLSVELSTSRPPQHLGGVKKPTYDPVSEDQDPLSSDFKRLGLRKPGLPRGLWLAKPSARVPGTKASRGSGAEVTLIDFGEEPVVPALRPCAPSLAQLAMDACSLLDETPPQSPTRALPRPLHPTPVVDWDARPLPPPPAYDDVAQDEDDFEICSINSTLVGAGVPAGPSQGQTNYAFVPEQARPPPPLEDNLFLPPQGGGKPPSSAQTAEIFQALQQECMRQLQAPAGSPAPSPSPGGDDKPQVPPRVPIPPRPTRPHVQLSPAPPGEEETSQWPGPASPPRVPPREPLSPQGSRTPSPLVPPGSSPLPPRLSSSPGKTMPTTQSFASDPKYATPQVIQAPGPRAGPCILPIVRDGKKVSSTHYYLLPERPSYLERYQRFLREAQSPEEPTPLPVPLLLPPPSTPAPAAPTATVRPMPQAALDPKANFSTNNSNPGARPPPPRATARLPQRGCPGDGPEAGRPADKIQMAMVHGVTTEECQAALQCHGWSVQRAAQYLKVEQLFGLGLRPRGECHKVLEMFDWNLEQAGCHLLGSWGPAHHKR

Row | Compound | inhibition at 1 µM [1] [%] | inhibition at 1 µM [2] [%] | inhibition at 1 µM [3] [%] | inhibition at 1 µM [4] [%] | inhibition at 1 µM [5] [%] | inhibition at 1 µM [6] [%] | inhibition at 1 µM [7] [%] | inhibition at 1 µM [8] [%] | inhibition at 1 µM [9] [%] | inhibition at 1 µM [10] [%] | inhibition at 1 µM [11] [%]
1 | COc1cc2nccc(Oc3ccc(NC(=O)C4(C(=O)Nc5ccc(F)cc5)CC4)cc3F)c2cc1Oc1ccc(N)cc1F [Cbo-23] | 3 | 85 | 54 | 27 | 66 | 89 | 5 | 17 | -2 | -1 | 15
2 | COc1cc2nccc(Oc3ccc(NC(=O)C4(NC(=O)c5ccc(F)cc5)CC4)cc3F)c2cc1Oc1ccc(N)cc1F [Cbo-10] | 4 | 68 | 69 | 1 | 97 | 95 | 29 | 9 | 32 | 7 | 24
3 | COc1cc2nccc(Oc3ccc(NC(=O)C4(NC(=O)c5ccc(F)cc5)CC4)cc3F)c2cc1OC [Cbo-02, N-(1-((4-((6,7-diMethoxyquinolin-4-yl)oxy)-3-fluorophenyl)carbamoyl)cyclopropyl)-4-fluorobenzamide] | 4 | 31 | 30 | 3 | 87 | 63 | 22 | 11 | 5 | 5 | 14
4 | COc1cc2nccc(Oc3ccc(NC(=O)C4(NC(=O)c5ccc(F)cc5)CC4)cc3F)c2cc1Oc1c(F)cc(N)cc1F [Cbo-14] | 1 | 76 | 70 | 5 | 97 | 96 | 37 | 21 | 41 | 6 | 27
5 | COc1cc2nccc(Oc3ccc(NC(=O)C4(C(=O)Nc5ccc(F)cc5)CC4)cc3)c2cc1OC [Cabozantinib, reference compound] | 13 | 92 | 16 | 12 | 49 | 61 | 16 | 9 | -2 | 8 | 16
